Data as given in paper PMC4172587 (2014).

Tests used:
[1] = system: poly(dA-dT).poly(dA-dT) (DNA, polymer) AT; assay: UV melting, 260 nm; details: Na+ (citrate-phosphate 15 mM); 15 mM CP buffer pH 6.8; 20 µM polymer; harmalol at saturation (rmax); per base
[2] = system: poly(dA).poly(dT) (DNA, polymer) A/T; assay: UV melting, 260 nm; details: Na+ (citrate-phosphate 15 mM); 15 mM CP buffer pH 6.8; 20 µM polymer; harmalol at saturation (rmax); per base
[3] = system: poly(dG).poly(dC) (DNA, polymer) G/C; assay: UV melting, 260 nm; details: Na+ (citrate-phosphate 15 mM); 15 mM CP buffer pH 6.8; 20 µM polymer; harmalol at saturation (rmax); per base
[4] = system: poly(dG-dC).poly(dG-dC) (DNA, polymer) GC; assay: competition dialysis; details: Na+ (citrate-phosphate 15 mM); apparent; 15 mM CP buffer pH 6.8, 25 °C; 150 µM nucleotide phosphate, 1 µM harmalol; per base
[5] = system: poly(dA-dT).poly(dA-dT) (DNA, polymer) AT; assay: competition dialysis; details: Na+ (citrate-phosphate 15 mM); apparent; 15 mM CP buffer pH 6.8, 25 °C; 150 µM nucleotide phosphate, 1 µM harmalol; per base
[6] = system: poly(dA).poly(dT) (DNA, polymer) A/T; assay: competition dialysis; details: Na+ (citrate-phosphate 15 mM); apparent; 15 mM CP buffer pH 6.8, 25 °C; 150 µM nucleotide phosphate, 1 µM harmalol; per base
[7] = system: poly(dG).poly(dC) (DNA, polymer) G/C; assay: competition dialysis; details: Na+ (citrate-phosphate 15 mM); apparent; 15 mM CP buffer pH 6.8, 25 °C; 150 µM nucleotide phosphate, 1 µM harmalol; per base
[8] = system: poly(dG-dC).poly(dG-dC) (DNA, polymer) GC; assay: ITC, polynucleotide titrated into harmalol; details: 15 mM Na+; CP buffer pH 6.8, 25 °C; single-site fit; 20 µM harmalol; per base
[9] = system: poly(dA-dT).poly(dA-dT) (DNA, polymer) AT; assay: ITC, polynucleotide titrated into harmalol; details: 15 mM Na+; CP buffer pH 6.8, 25 °C; single-site fit; text b28 prints 0.40±0.02×10^5, Table 3 agrees with 0.44×10^6; per base
[10] = system: poly(dA).poly(dT) (DNA, polymer) A/T; assay: ITC, polynucleotide titrated into harmalol; details: 15 mM Na+; CP buffer pH 6.8, 25 °C; single-site fit; 20 µM harmalol; per base
[11] = system: poly(dG).poly(dC) (DNA, polymer) G/C; assay: ITC, polynucleotide titrated into harmalol; details: 15 mM Na+; CP buffer pH 6.8, 25 °C; single-site fit; 20 µM harmalol; per base
[12] = system: poly(dG-dC).poly(dG-dC) (DNA, polymer) GC; assay: absorbance titration, Scatchard, McGhee-von Hippel; details: Na+ (citrate-phosphate 15 mM); 15 mM CP buffer pH 6.8, 25 °C; non cooperative; DNA as nucleotide phosphate; per base
[13] = system: poly(dA-dT).poly(dA-dT) (DNA, polymer) AT; assay: absorbance titration, Scatchard, McGhee-von Hippel; details: Na+ (citrate-phosphate 15 mM); 15 mM CP buffer pH 6.8, 25 °C; non cooperative; DNA as nucleotide phosphate; per base
[14] = system: poly(dA).poly(dT) (DNA, polymer) A/T; assay: absorbance titration, Scatchard, McGhee-von Hippel; details: Na+ (citrate-phosphate 15 mM); 15 mM CP buffer pH 6.8, 25 °C; cooperative, intrinsic Ki 0.02±0.01 × 10^6, ω 14.0; DNA as nucleotide phosphate; per base
[15] = system: poly(dG).poly(dC) (DNA, polymer) G/C; assay: absorbance titration, Scatchard, McGhee-von Hippel; details: Na+ (citrate-phosphate 15 mM); 15 mM CP buffer pH 6.8, 25 °C; cooperative, intrinsic Ki 0.002±0.001 × 10^6, ω 84; DNA as nucleotide phosphate; per base
[16] = system: poly(dG-dC).poly(dG-dC) (DNA, polymer) GC; assay: fluorescence titration, Scatchard, McGhee-von Hippel; details: Na+ (citrate-phosphate 15 mM); 15 mM CP buffer pH 6.8, 25 °C; non cooperative; DNA as nucleotide phosphate; per base
[17] = system: poly(dA-dT).poly(dA-dT) (DNA, polymer) AT; assay: as above; details: Na+ (citrate-phosphate 15 mM); 15 mM CP buffer pH 6.8, 25 °C; non cooperative; DNA as nucleotide phosphate; per base
[18] = system: poly(dA).poly(dT) (DNA, polymer) A/T; assay: as above; details: Na+ (citrate-phosphate 15 mM); 15 mM CP buffer pH 6.8, 25 °C; cooperative, intrinsic constant, ω 20; DNA as nucleotide phosphate; per base
[19] = system: poly(dG).poly(dC) (DNA, polymer) G/C; assay: as above; details: Na+ (citrate-phosphate 15 mM); 15 mM CP buffer pH 6.8, 25 °C; cooperative, intrinsic constant, ω 75; DNA as nucleotide phosphate; per base

What does the source list for CC1=NCCc2c1[nH]c1cc(O)ccc21?
ΔTm [1]: 8 °C; ΔTm [2]: 6 °C; ΔTm [3]: 6 °C; Kapp [4]: 13.10±0.07 × 10^5 M^-1; Kapp [5]: 4.56±0.04 × 10^5 M^-1; Kapp [6]: 3.39±0.02 × 10^5 M^-1; Kapp [7]: 2.19±0.01 × 10^5 M^-1; Kb [8]: 3.86±0.07 × 10^6 M^-1; Kb [9]: 0.44±0.02 × 10^6 M^-1; Kb [10]: 0.30±0.02 × 10^6 M^-1; Kb [11]: 0.22±0.03 × 10^6 M^-1; Ki [12]: 4.20±0.05 × 10^6 M^-1; Ki [13]: 0.43±0.03 × 10^6 M^-1; Kiω [14]: 0.28±0.01 × 10^6 M^-1; Kiω [15]: 0.18±0.01 × 10^6 M^-1; Kf [16]: 4.60±0.07 × 10^6 M^-1; Kf [17]: 0.45±0.04 × 10^6 M^-1; Kf [18]: 0.015±0.001 × 10^6 M^-1; Kf [19]: 0.002±0.001 × 10^6 M^-1
